Measurements: US9809604B2, “DGAT1 inhibitor and preparation method and use thereof” (Qingdao Huanghai Pharmaceutical Co., Ltd., priority 2013, dated 2017)
Read-outs that look alike come from different tables or passages of the source.

Biological target: T1, DGAT1 (Homo sapiens, UniProt O75907)
T1 sequence (O75907 1-488): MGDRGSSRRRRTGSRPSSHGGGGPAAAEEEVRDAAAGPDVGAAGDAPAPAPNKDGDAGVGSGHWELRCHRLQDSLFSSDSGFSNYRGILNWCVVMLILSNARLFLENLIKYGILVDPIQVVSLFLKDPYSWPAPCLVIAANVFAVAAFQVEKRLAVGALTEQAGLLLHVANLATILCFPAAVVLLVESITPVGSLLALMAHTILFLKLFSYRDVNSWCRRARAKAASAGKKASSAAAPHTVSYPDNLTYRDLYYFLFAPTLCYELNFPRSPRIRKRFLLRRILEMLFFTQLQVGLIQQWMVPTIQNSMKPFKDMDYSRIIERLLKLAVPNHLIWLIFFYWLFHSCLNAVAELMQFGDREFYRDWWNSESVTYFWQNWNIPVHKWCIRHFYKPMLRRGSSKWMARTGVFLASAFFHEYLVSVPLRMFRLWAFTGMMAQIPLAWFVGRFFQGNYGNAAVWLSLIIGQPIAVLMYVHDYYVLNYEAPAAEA
Test: Human DGAT1 IC50 enzyme assay (Flashplate, 14C-labeled acyl-CoA)
Format: biochemical
Design: made in house
Procedure: The ability of compounds to inhibit DGAT enzyme activity is determined by calculating IC50 values of test compounds. Ki values of DGAT1 are calculated as follows: Cheng-Prusoff equation: Ki=IC50/(1+[S]/Km)
(1) Human DGAT1 IC50 (nM) Experiment
Human DGAT1 activity was determined as follows:
Expressing human DGAT1 enzyme, used diacylglycerol and 14C-labeled acyl-CoA as the substrate, choose PE Company Flashplate testing board to build DGAT1 enzyme reaction system. 14C-labeled acyl-CoA binds to diacylglycerol by covalent bonding after enzymology reaction, and generates the product of 14C-labeled triglyceride. 14C-labeled acyl-CoA substrate is dissolved in reaction solution and 14C-labeled triglyceride product combine with phospholipids of Flashplate plate bottom layer, thus effectively separate labeled substrates and products. The radioactive of 14C-labeled triglyceride which is combined with phospholipid layer is counted, and the potencies of DGAT-1 inhibition for the compounds are determined by calculating the IC50 values.

[1] = average of first and second, read-out: hDGAT1 IC50(nM) Average
[2] = first determination, read-out: hDGAT1 IC50(nM) First
[3] = second determination, read-out: hDGAT1 IC50(nM) Second

| Structure (SMILES) | IC50 [1] [nM] | IC50 [2] [nM] | IC50 [3] [nM] |
| --- | --- | --- | --- |
| Nc1ncnc2c1C(=O)N(c1ccc3c(c1)CCC(OCC(F)(F)F)C3)CCO2 (single isomer, unassigned) [Compound 108 (peak2), 4-amino-6-(6-(2,2,2-trifluoroethoxy)-5,6,7,8-tetrahydonaphthalen-2-yl)-7,8-dihydropyrimido[5,4-f][1,4]oxazepin-5-(6H)-one] | 52.6 | 56.4 | 48.8 |
| Nc1ncnc2c1C(=O)N(c1ccc3c(c1)CCC(OCC(F)(F)F)C3)CCO2 (single isomer, unassigned; peak1) [Compound 105 (peak1), 4-amino-6-(6-(2,2,2-trifluoroethoxy)-5,6,7,8-tetrahydonaphthalen-2-yl)-7,8-dihydropyrimido[5,4-f][1,4]oxazepin-5-(6H)-one] | 73.3 | 103 | 43.3 |
| Nc1ncnc2c1C(=O)N(c1ccc(N3CCN(CC(F)(F)F)C3=O)c(Cl)c1)CCO2 [Compound 8, 4-amino-6-(3-chloro-4-(2-oxo-3-(2,2,2-trifluoroethyl)imidazolidin-1-yl)phenyl)-7,8-dihydropyrimido[5,4-f][1,4]oxazepin-5(6H)one] | 38.9 | 41.9 | 35.9 |
| Nc1ncnc2c1C(=O)N(c1ccc(-n3ccn(CC(=O)O)c3=O)c(Cl)c1)CCO2 [Compound 28, 2-(3-(4-(4-amino-5-oxo-7,8-dihydropyrimido [5,4-f][1,4]oxazepin-6(5H)-yl)-2-chlorophenyl)-2-oxo-2,3-dihydro-1H-imidazol-1-yl)acetic acid] | 41.8 | 45.6 | 37.9 |
| Nc1ncnc2c1C(=O)N(c1ccc(N3CCN(CC4CC4)C3=O)c(Cl)c1)CCO2 [Compound 30, 4-amino-6-(3-chloro-4-(3-(cyclopropylmethyl)-2-oxoimidazolidin-1-yl)phenyl)-7,8-dihydropyrimido [5,4-f][1,4]oxazepin-5(6H)-one] | 24.4 | 25.4 | 23.4 |
| CC(C)(F)CN1CCN(c2ccc(N3CCOc4ncnc(N)c4C3=O)cc2Cl)C1=O [Compound 31, 4-amino-6-(3-chloro-4-(3-(2-fluoro-2-methylpropyl)-2-oxoimidazolidin-1-yl)phenyl)-7,8-dihydropyrimido[5,4-f][1,4]oxazepin-5(6H)-one] | 23.5 | 23.6 | 23.4 |
| CC(C)(C(=O)O)n1cc(-c2ccc(N3CCOc4ncnc(N)c4C3=O)cc2Cl)cn1 [Compound 33, 2-(4-(4-(4-amino-5-oxo-7,8-dihydropyrimido[5,4-f][1,4]oxazepin-6(5H)-yl)-2-chlorophenyl)-1H-pyrazol-1-yl)-2-methylpropanoic acid] | 36.8 | 26.9 | 46.7 |
| CC(C(=O)O)n1cc(-c2ccc(N3CCOc4ncnc(N)c4C3=O)cc2Cl)cn1 (stereo not drawn) [Compound 34, 2-(4-(4-(4-amino-5-oxo-7,8-dihydropyrimido[5,4-f][1,4]oxazepin-6(5H)-yl)-2-chlorophenyl)-1H-pyrazol-1-yl) propanoic acid] | 55.8 | 78 | 33.6 |
| Nc1ncnc2c1C(=O)N(c1ccc(-c3cnn(CCC(=O)O)c3)c(Cl)c1)CCO2 [Compound 35, 3-(4-(4-(4-amino-5-oxo-7,8-dihydropyrimido[5,4-f][1,4]oxazepin-6(5H)-yl)-2-chlorophenyl)-1H-pyrazol-1-yl)propanoic acid] | 25.8 | 24.8 | 26.7 |

More lines, now with the values ahead:

| IC50 [1] [nM] | IC50 [2] [nM] | IC50 [3] [nM] | Structure (SMILES) |
| --- | --- | --- | --- |
| 48.1 | 53.3 | 43 | Nc1ncnc2c1C(=O)N(c1ccc(N3CCN(CC(=O)O)C3=O)c(Cl)c1)CCO2 [Compound 1, 2-(3-(4-(4-amino-5-oxo-7,8-dihydropyrimido[5,4-f][1,4]oxazepin-6(5H)-yl)-2-chlorophenyl)-2-oxoimidazolidin-1-yl)acetic acid] |
| 52.9 | 64.1 | 41.6 | Nc1ncnc2c1C(=O)N(c1ccc(N3CCN(CC(=O)O)C3=O)c(F)c1)CCO2 [Compound 2, 2-(3-(4-(4-amino-5-oxo-7,8-dihydropyrimido[5,4-f][1,4]oxazepin-6(5H)-yl)-2-fluorophenyl)-2-oximidazolidin-1-yl)acetate acid] |
| 65.2 | 60.9 | 69.5 | Cc1cc(N2CCOc3ncnc(N)c3C2=O)ccc1N1CCN(CC(=O)O)C1=O [Compound 3, 2-(3-(4-(4-amino-5-oxo-7,8-dihydropyrimido[5,4-f][1,4]oxazepin-6(5H)-yl)-2-methylphenyl)-2-oxoimidazolidin-1-yl)acetate acid] |
| 39.5 | 46.2 | 32.9 | CCc1cc(N2CCOc3ncnc(N)c3C2=O)cc(C)c1N1CCN(CC(=O)O)C1=O [Compound 4, 2-(3-(4-(4-amino-5-oxo-7,8-dihydropyrimido[5,4-f][1,4]oxazepin-6(5H)-yl)-2-ethyl-6-methylphenyl)-2-oxoimidazolidin-1-yl)acetic acid] |
| 60.3 | 51.6 | 69 | CCc1cc(N2CCOc3ncnc(N)c3C2=O)ccc1N1CCN(CC(=O)O)C1=O [Compound 5, 2-(3-(4-(4-amino-5-oxo-7,8-dihydropyrimido[5,4-f][1,4]oxazepin-6(5H)-yl)-2-ethylphenyl)-2-oxoimidazolidin-1-yl)acetic acid] |
| 31.5 | 24.4 | 38.5 | Nc1ncnc2c1C(=O)N(c1ccc(N3CCN(CCC(=O)O)C3=O)c(Cl)c1)CCO2 [Compound 6] |
| 36.9 | 43.5 | 30.4 | Nc1ncnc2c1C(=O)N(c1ccc(N3CCN(CC(=O)O)C3=O)c(OC(F)(F)F)c1)CCO2 [Compound 7, 2-(3-(4-(4-amino-5-oxo-7,8-dihydropyrimido[5,4-f][1,4]oxazepin-6(5H)-yl)-2-(trifluoromethoxy)phenyl)-2-oxoimidazolidin-1-yl)acetic acid] |
| 101 | 136 | 66.5 | CCc1cc(N2CCOc3ncnc(N)c3C2=O)cc(CC)c1N1CCN(CC(=O)O)C1=O [Compound 19] |
| 58.9 | 57.2 | 60.7 | Nc1ncnc2c1C(=O)N(c1ccc(N3CCN(CC(=O)O)C3=O)c(C(F)(F)F)c1)CCO2 [Compound 25, 2-(3-(4-(4-amino-5-oxo-7,8-dihydropyrimido [5,4-f][1,4]oxazepin-6(5H)-yl)-2-(trifluoromethyl)phenyl)-2-oxoimidazolidin-1-yl)acetic acid] |
| 50.6 | 41.3 | 60 | Cc1cc(N2CCOc3ncnc(N)c3C2=O)cc(F)c1N1CCN(CC(=O)O)C1=O [Compound 26, 2-(3-(4-(4-amino-5-oxo-7,8-dihydropyrimido [5,4-f][1,4]oxazepin-6(5H)-yl)-2-fluoro-6-methylphenyl)-2-oxoimidazolidin-1-yl) acetic acid] |
| 62.4 | 69 | 55.7 | Cc1cc(N2CCOc3ncnc(N)c3C2=O)cc(Cl)c1N1CCN(CC(=O)O)C1=O [Compound 27] |
| 35.2 | 37.4 | 32.9 | CC(C)CN1CCN(c2ccc(N3CCOc4ncnc(N)c4C3=O)cc2Cl)C1=O [Compound 29, 4-amino-6-(3-chloro-4-(3-isobutyl-2-oxoimidazolidin-1-yl)phenyl)-7,8-dihydropyrimido [5,4-f][1,4]oxazepin-5(6H)-one] |
